According to the supplement of paper PMC11208160:

Assay: recombinant barcode read abundance after kanamycin selection (control-corrected) (log10(CPM+1)); higher = more efficient recombination; sequences stand for … in AGTGCAGAGAAAATCGGCCAGTTTTCTCTGCCTGCAGTCCGCATGCCGT…AGATTTATGCAGCGGACTGCCTTTCTCCCAAAGTGATAAACCGGACAGTATCATGGACCGGTTTTCCCGGTAATCCGTATTTGCAAGGTTGGTTTCACT; site = the 11-nt target
In short: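 A vector carrying a T7-inducible recombinase and the last 73 bp of the bridge RNA received, by Gibson cloning, oligos encoding a promoter, target, barcode and the first 104 bridge RNA bases under J23119. The pooled constructs entered E. coli together with a donor plasmid by electroporation. Selection used chloramphenicol/ampicillin/kanamycin with 0.1 mM IPTG, with chloramphenicol/ampicillin LB agar as the control, each in two replicates. Recombination efficiency is the averaged, control-corrected counts-per-million of barcodes at recombinant junctions, reported as log10(CPM+1).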
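Further: IS621 recombinase and bridge RNA in Escherichia coli cells.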

Sequence: TAGAACTCTTGGGTTCTAACCTGTTGCCT (site TAGAACTCTGG)
- recombinant barcode read abundance (log10): 0.156

Sequence: TAGAACTCTTGGGTTCTAACCTGTTGCCT (site TAGAACTCTTG)
- recombinant barcode read abundance (log10): 0.119

Sequence: TAGAACTCTTGGGTTCTAACCTGTTGCGT (site TAGAACTCTAC)
- recombinant barcode read abundance (log10): 1.07

Sequence: TAGAACTCTTGGGTTCTAACCTGTTGCGT (site TAGAGCTCTAC)
- recombinant barcode read abundance (log10): 0.119

Sequence: TAGAAGACTTGGGTTCTAACCTGTTGCTC (site TAGAAGACTAA)
- recombinant barcode read abundance (log10): 0.216

Sequence: TAGAAGACTTGGGTTCTAACCTGTTGCTC (site TAGAAGACTCA)
- recombinant barcode read abundance (log10): 0.178

Sequence: TAGAAGACTTGGGTTCTAACCTGTTGCTC (site TAGAAGACTGA)
- recombinant barcode read abundance (log10): 1.44

Sequence: TAGAAGACTTGGGTTCTAACCTGTTGCTC (site TAGAAGACTTA)
- recombinant barcode read abundance (log10): 0.0266

Sequence: TAGAAGTCTTGGGTTCTAACCTGTTGCAG (site TAGAAGTCTCT)
- recombinant barcode read abundance (log10): 1.9

Sequence: TAGAAGTCTTGGGTTCTAACCTGTTGCAG (site TAGATGTCTCC)
- recombinant barcode read abundance (log10): 0.0783

Sequence: TAGAATCCTTGGGTTCTAACCTGTTGCAG (site TAGAATCCTAT)
- recombinant barcode read abundance (log10): 0.0897

Sequence: TAGAATCCTTGGGTTCTAACCTGTTGCAG (site TAGAATCCTCT)
- recombinant barcode read abundance (log10): 0.718

Sequence: TAGAATCCTTGGGTTCTAACCTGTTGCAG (site TAGAATCCTGT)
- recombinant barcode read abundance (log10): 0.0644

Sequence: TAGAATCCTTGGGTTCTAACCTGTTGCAG (site TAGAATCCTTT)
- recombinant barcode read abundance (log10): 0.072

Sequence: TAGACATCTTGGGTTCTAACCTGTTGCGT (site CGCTTTACTCG)
- recombinant barcode read abundance (log10): 0.125

Sequence: TAGACATCTTGGGTTCTAACCTGTTGCGT (site TAGACATCTAC)
- recombinant barcode read abundance (log10): 1.65

Sequence: TAGACTACTTGGGTTCTAACCTGTTGCTA (site TAGACTACTAA)
- recombinant barcode read abundance (log10): 0.198

Sequence: TAGACTACTTGGGTTCTAACCTGTTGCTA (site TAGACTACTCA)
- recombinant barcode read abundance (log10): 0.111

Sequence: TAGACTACTTGGGTTCTAACCTGTTGCTA (site TAGACTACTGA)
- recombinant barcode read abundance (log10): 0.0863

Sequence: TAGACTACTTGGGTTCTAACCTGTTGCTA (site TAGACTACTTA)
- recombinant barcode read abundance (log10): 0.268

Sequence: TAGACTCCTTGGGTTCTAACCTGTTGCCA (site ACTTGAGCTAT)
- recombinant barcode read abundance (log10): 0.336

Sequence: TAGACTCCTTGGGTTCTAACCTGTTGCCA (site TAGACTCCTTG)
- recombinant barcode read abundance (log10): 0.182

Sequence: TAGAGCTCTTGGGTTCTAACCTGTTGCGT (site TAGAACTCTAC)
- recombinant barcode read abundance (log10): 0.246

Sequence: TAGAGCTCTTGGGTTCTAACCTGTTGCGT (site TAGAGCTCTAC)
- recombinant barcode read abundance (log10): 1.25

Sequence: TAGATGTCTTGGGTTCTAACCTGTTGCGG (site TAGAAGTCTCT)
- recombinant barcode read abundance (log10): 0.0755

Sequence: TAGATGTCTTGGGTTCTAACCTGTTGCGG (site TAGATGTCTCC)
- recombinant barcode read abundance (log10): 2.43

Sequence: TAGCAATCTTGGGTTCTAACCTGTTGCTA (site GTCGTTACTAG)
- recombinant barcode read abundance (log10): 0.0938

Sequence: TAGCAATCTTGGGTTCTAACCTGTTGCTA (site TAGCAATCTTA)
- recombinant barcode read abundance (log10): 0.0837

Sequence: TAGCACACTTGGGTTCTAACCTGTTGCGG (site TAGCACACTCC)
- recombinant barcode read abundance (log10): 1.21

Sequence: TAGCACACTTGGGTTCTAACCTGTTGCGG (site TAGCCCACTCC)
- recombinant barcode read abundance (log10): 0.112

Sequence: TAGCACACTTGGGTTCTAACCTGTTGCGG (site TAGCGCACTCC)
- recombinant barcode read abundance (log10): 0.291

Sequence: TAGCACACTTGGGTTCTAACCTGTTGCGG (site TAGCTCACTCC)
- recombinant barcode read abundance (log10): 0.00842

Sequence: TAGCATACTTGGGTTCTAACCTGTTGCCA (site TAGCATACTAG)
- recombinant barcode read abundance (log10): 0.445

Sequence: TAGCATACTTGGGTTCTAACCTGTTGCCA (site TAGCATACTCG)
- recombinant barcode read abundance (log10): 0.0183

Sequence: TAGCATACTTGGGTTCTAACCTGTTGCCA (site TAGCATACTGG)
- recombinant barcode read abundance (log10): 0.359

Sequence: TAGCATACTTGGGTTCTAACCTGTTGCCA (site TAGCATACTTG)
- recombinant barcode read abundance (log10): 0.529

Sequence: TAGCCATCTTGGGTTCTAACCTGTTGCCT (site TAACCATCTAG)
- recombinant barcode read abundance (log10): 0.0247

Sequence: TAGCCATCTTGGGTTCTAACCTGTTGCCT (site TACCCATCTAG)
- recombinant barcode read abundance (log10): 0.166

Sequence: TAGCCATCTTGGGTTCTAACCTGTTGCCT (site TAGCCATCTAG)
- recombinant barcode read abundance (log10): 0.121

Sequence: TAGCCATCTTGGGTTCTAACCTGTTGCCT (site TATCCATCTAG)
- recombinant barcode read abundance (log10): 0.0171

Sequence: TAGCCCTCTTGGGTTCTAACCTGTTGCAA (site ACAGTACCTCA)
- recombinant barcode read abundance (log10): 0.202

Sequence: TAGCCCTCTTGGGTTCTAACCTGTTGCAA (site TAGCCCTCTTT)
- recombinant barcode read abundance (log10): 2.02

Sequence: TAGCCCTCTTGGGTTCTAACCTGTTGCCG (site TAGCCCTCTCG)
- recombinant barcode read abundance (log10): 1.82

Sequence: TAGCCCTCTTGGGTTCTAACCTGTTGCCG (site TAGTCCGCTCG)
- recombinant barcode read abundance (log10): 0.023

Sequence: TAGCCGGCTTGGGTTCTAACCTGTTGCAG (site GAGCCGACTCT)
- recombinant barcode read abundance (log10): 0.385

Sequence: TAGCCGGCTTGGGTTCTAACCTGTTGCAG (site TAGCCGGCTCT)
- recombinant barcode read abundance (log10): 1.06

Sequence: TAGCCGGCTTGGGTTCTAACCTGTTGCCT (site TAGCCGGCTAA)
- recombinant barcode read abundance (log10): 0.264

Sequence: TAGCCGGCTTGGGTTCTAACCTGTTGCCT (site TAGCCGGCTAG)
- recombinant barcode read abundance (log10): 0.907

Sequence: TAGCCGGCTTGGGTTCTAACCTGTTGCTT (site TAGCCGGCTAA)
- recombinant barcode read abundance (log10): 0.358

Sequence: TAGCCGGCTTGGGTTCTAACCTGTTGCTT (site TAGCCGGCTAG)
- recombinant barcode read abundance (log10): 0.386

Sequence: TAGCCTTCTTGGGTTCTAACCTGTTGCCT (site TAGCCTTCTAG)
- recombinant barcode read abundance (log10): 0.572

Sequence: TAGCCTTCTTGGGTTCTAACCTGTTGCCT (site TCGCCTTCTAG)
- recombinant barcode read abundance (log10): 0.204

Sequence: TAGCCTTCTTGGGTTCTAACCTGTTGCCT (site TGGCCTTCTAG)
- recombinant barcode read abundance (log10): 0.0192

Sequence: TAGCCTTCTTGGGTTCTAACCTGTTGCCT (site TTGCCTTCTAG)
- recombinant barcode read abundance (log10): 0.0659

Sequence: TAGCGGACTTGGGTTCTAACCTGTTGCAT (site TAGCGGACTAT)
- recombinant barcode read abundance (log10): 0.992

Sequence: TAGCGGACTTGGGTTCTAACCTGTTGCAT (site TAGCGGTCTAG)
- recombinant barcode read abundance (log10): 0.0826

Sequence: TAGCGGTCTTGGGTTCTAACCTGTTGCCT (site TAGCGGACTAT)
- recombinant barcode read abundance (log10): 0.0756

Sequence: TAGCGGTCTTGGGTTCTAACCTGTTGCCT (site TAGCGGTCTAG)
- recombinant barcode read abundance (log10): 1.46

Sequence: TAGCGTACTTGGGTTCTAACCTGTTGCGG (site TAGCGTACTAC)
- recombinant barcode read abundance (log10): 0.107

Sequence: TAGCGTACTTGGGTTCTAACCTGTTGCGG (site TAGCGTACTCC)
- recombinant barcode read abundance (log10): 1.79

Sequence: TAGCTCACTTGGGTTCTAACCTGTTGCGG (site TAGCACACTCC)
- recombinant barcode read abundance (log10): 0.0805

Sequence: TAGCTCACTTGGGTTCTAACCTGTTGCGG (site TAGCCCACTCC)
- recombinant barcode read abundance (log10): 0.581

Sequence: TAGCTCACTTGGGTTCTAACCTGTTGCGG (site TAGCGCACTCC)
- recombinant barcode read abundance (log10): 0.791

Sequence: TAGCTCACTTGGGTTCTAACCTGTTGCGG (site TAGCTCACTCC)
- recombinant barcode read abundance (log10): 1.3

Sequence: TAGCTCCCTTGGGTTCTAACCTGTTGCCG (site TAGCTCCCTAG)
- recombinant barcode read abundance (log10): 0.475

Sequence: TAGCTCCCTTGGGTTCTAACCTGTTGCCG (site TAGCTCCCTCG)
- recombinant barcode read abundance (log10): 1.43
